From PubChem BioAssay (NCI) come the findings set out here.

SMILES strings stand for the structures. Where “and” joins values, the source holds several entries; their conditions need not be identical. Equal entries are not always repeated.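 Following 48 hours of exposure in 96-well plates, responses at five concentrations were used to interpolate endpoints linearly. GI50 = concentration required for 50% inhibition of growth. Definition used: TGI = concentration required for complete inhibition of growth.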 Some results are limits rather than exact numbers.

Some test systems named below: EKVX NSCLC; HCC-2998 colon; HOP-92 NSCLC; K-562 leukemia; MALME-3M melanoma; MDA-MB-435; OVCAR-4 ovarian; OVCAR-5 ovarian; OVCAR-8 ovarian; SF-539 CNS.
Holding throughout (assay): NCI tumour cell line growth inhibition, 48 h

In the case of `CN(C)C(=S)SSC(=S)N(C)C`, the GI50 in the experiment on EKVX NSCLC is 22 µM and > 73.4 µM and 18.6 µM; in the experiment on HCC-2998 colon, 38.3 µM; in the experiment on HOP-92 NSCLC, 17.3 µM and 59.5 µM and 18.4 µM; in the experiment with MALME-3M melanoma, 16.3 µM; with MDA-MB-435 it was 15.6 µM and 8.04 µM and 21.1 µM; in the experiment with OVCAR-5 ovarian, 14.9 µM and > 58.4 µM and 16.6 µM. Also, the GI50 with OVCAR-8 ovarian is 15.8 µM and 5.61 µM and 16.4 µM; in the experiment with SF-539 CNS, 16.3 µM and 40.8 µM and 10.7 µM. For the same molecule, the TGI with EKVX NSCLC was 96.3 µM and > 100 µM and 35.1 µM; in the experiment on HCC-2998 colon it was > 100 µM and 38 µM; in the experiment with HOP-92 NSCLC, 42.8 µM and > 100 µM and 36.7 µM; in the experiment on K-562 leukemia it was > 100 µM and 16.5 µM; in the experiment on MALME-3M melanoma, 34.7 µM and 50.1 µM and 31 µM; in the experiment on MDA-MB-435, 38.6 µM and 33.5 µM and > 56.7 µM. Also, the TGI with OVCAR-4 ovarian was 20.8 µM and 8.96 µM and 39.1 µM; in the experiment on OVCAR-5 ovarian, 28.2 µM and > 72.6 µM and 33.5 µM; with OVCAR-8 ovarian it was 30.5 µM and 65.8 µM and 36.1 µM; in the experiment on SF-539 CNS, 31.9 µM and > 100 µM and > 45.8 µM.
`c1ccc2c(c1)[nH]c1c2cc[n+]2cc3c(cc12)CCCC3`: the TGI is 32.4 µM in the experiment on EKVX NSCLC; 7.71 µM and 4.66 µM with HCC-2998 colon; 24.8 µM with HOP-92 NSCLC; 12.5 µM and 10.8 µM in the experiment with K-562 leukemia; 3.54 µM in the experiment with MALME-3M melanoma; 6.34 µM and 7.54 µM with MDA-MB-435. The TGI in the experiment with OVCAR-4 ovarian is 7.6 µM and 5.73 µM; in the experiment on OVCAR-5 ovarian, 17.9 µM and 13.6 µM; in the experiment with OVCAR-8 ovarian it was 7.57 µM and 11.2 µM; in the experiment on SF-539 CNS it was 11.7 µM and 6.7 µM. Also, the GI50 was 2.67 µM with HCC-2998 colon; 4.57 µM with HOP-92 NSCLC; 2.76 µM with K-562 leukemia; 1.65 µM in the experiment with MALME-3M melanoma; 2.14 µM with OVCAR-4 ovarian; 3.87 µM with OVCAR-5 ovarian. Besides, the GI50 was 1.95 µM in the experiment with OVCAR-8 ovarian and 3 µM with SF-539 CNS.
On to `CO[C@H]1Nc2c(ccc(C)c2O)C(=O)N2C=C(/C=C/C(N)=O)C[C@@H]12`, for which the TGI in the experiment on EKVX NSCLC was 1.03 µM; with HCC-2998 colon, 0.132 µM; with HOP-92 NSCLC, 0.217 µM; in the experiment with K-562 leukemia it was 27.8 µM; in the experiment with MALME-3M melanoma, 0.0591 µM; with MDA-MB-435, 0.0293 µM. For the same molecule, the TGI came to 0.686 µM in the experiment with OVCAR-4 ovarian, 5.45 µM with OVCAR-5 ovarian, 2.01 µM in the experiment with OVCAR-8 ovarian and 0.0384 µM with SF-539 CNS.
`COc1cc2c(Nc3cc(Cl)c(OC)c(Cl)c3)c(C#N)cnc2cc1OCCCN1CCN(C)CC1`: the GI50 in the experiment with EKVX NSCLC was 1.17 µM; with HCC-2998 colon it was 1.56 µM; in the experiment on HOP-92 NSCLC it was 7.83 µM; with K-562 leukemia, 0.574 µM; in the experiment with MALME-3M melanoma, 1.6 µM; in the experiment with MDA-MB-435, 1.24 µM. Moreover, the GI50 is 1.9 µM in the experiment with OVCAR-4 ovarian, 1.56 µM in the experiment with OVCAR-5 ovarian, 1.24 µM in the experiment on OVCAR-8 ovarian and 1.01 µM in the experiment with SF-539 CNS. The TGI with EKVX NSCLC is 18.9 µM; in the experiment with HCC-2998 colon it was 4.1 µM; with HOP-92 NSCLC, 19.4 µM; in the experiment on K-562 leukemia it was 8.41 µM; with MALME-3M melanoma, 3.7 µM; in the experiment with MDA-MB-435, 3.2 µM. For the same molecule, the TGI with OVCAR-4 ovarian came out at 11.3 µM; in the experiment on OVCAR-5 ovarian, 11.7 µM; with OVCAR-8 ovarian, 4.33 µM; in the experiment with SF-539 CNS, 2.91 µM.
Take `COc1ccc(-c2ccc3c(N4CCOC[C@@H]4C)nc(N4CCOC[C@@H]4C)nc3n2)cc1CO`: the GI50 with EKVX NSCLC is 0.00504 µM and 0.0229 µM; with HCC-2998 colon, 0.0094 µM and 0.0254 µM; with HOP-92 NSCLC it was 0.00134 µM and 0.0105 µM; in the experiment with K-562 leukemia, 0.012 µM and 0.0551 µM; with MALME-3M melanoma it was 0.00289 µM and < 0.01 µM; in the experiment with MDA-MB-435, 0.00531 µM and 0.0227 µM. The GI50 in the experiment on OVCAR-4 ovarian was 0.00414 µM and < 0.0142 µM; in the experiment on OVCAR-5 ovarian it was 0.00607 µM and 0.0331 µM; in the experiment with OVCAR-8 ovarian, 0.00759 µM and 0.0351 µM; in the experiment with SF-539 CNS it was 0.00431 µM and 0.026 µM. Further, the TGI in the experiment on EKVX NSCLC was 0.113 µM and 0.564 µM; in the experiment on HCC-2998 colon, 3.21 µM; in the experiment with K-562 leukemia, greater than 100 µM; in the experiment with MALME-3M melanoma, 0.0203 µM and 0.0392 µM; in the experiment on MDA-MB-435, 0.0557 µM and 0.263 µM; with OVCAR-4 ovarian it was 0.0382 µM and 0.12 µM. Moreover, the TGI in the experiment on OVCAR-5 ovarian was 60.3 µM; in the experiment on OVCAR-8 ovarian it was 3.39 µM; in the experiment on SF-539 CNS, 0.0831 µM and 0.268 µM.
As for `COc1ccc(C(CC(=O)c2ccc3c(c2)OCO3)c2c(O)c3ccccc3oc2=O)cc1OC` (stereo not given), the TGI with EKVX NSCLC, in the experiment with HCC-2998 colon, in the experiment on HOP-92 NSCLC, in the experiment on K-562 leukemia, in the experiment with MALME-3M melanoma and in the experiment with MDA-MB-435 was greater than 100 µM throughout. Besides, the TGI with OVCAR-4 ovarian, in the experiment with OVCAR-5 ovarian, in the experiment with OVCAR-8 ovarian and in the experiment on SF-539 CNS was greater than 100 µM each time.
Regarding `CCCC/C(=C\C1=C(C)C(=O)C(OC)=C(OC)C1=O)C(=O)O`, the GI50 was greater than 100 µM in the experiment with EKVX NSCLC; greater than 100 µM in the experiment on HCC-2998 colon; 23.5 µM in the experiment with HOP-92 NSCLC; 50.1 µM with K-562 leukemia; greater than 100 µM in the experiment on MALME-3M melanoma; greater than 100 µM with MDA-MB-435. In addition, the GI50 was 31.6 µM with OVCAR-4 ovarian, greater than 100 µM with OVCAR-5 ovarian, greater than 100 µM in the experiment on OVCAR-8 ovarian and greater than 100 µM in the experiment on SF-539 CNS. The TGI in the experiment with EKVX NSCLC is greater than 100 µM; in the experiment with HCC-2998 colon, greater than 100 µM; with HOP-92 NSCLC, 86.7 µM; in the experiment with K-562 leukemia, greater than 100 µM; with MALME-3M melanoma, greater than 100 µM; in the experiment with MDA-MB-435, greater than 100 µM. Also, the TGI with OVCAR-4 ovarian, in the experiment on OVCAR-5 ovarian, with OVCAR-8 ovarian and in the experiment with SF-539 CNS was greater than 100 µM each time.
In the case of `CCNC(=O)/C(=C/c1ccc(OC)cc1)c1cc(OC)c(OC)c(OC)c1`, the TGI was greater than 100 µM in the experiment with EKVX NSCLC; greater than 39.3 µM in the experiment on HCC-2998 colon; greater than 96.6 µM in the experiment with HOP-92 NSCLC; greater than 100 µM in the experiment with K-562 leukemia; greater than 100 µM with MALME-3M melanoma; greater than 20.5 µM in the experiment on MDA-MB-435. The TGI was greater than 100 µM in the experiment on OVCAR-4 ovarian, greater than 100 µM in the experiment with OVCAR-5 ovarian, greater than 100 µM in the experiment on OVCAR-8 ovarian and 45.9 µM with SF-539 CNS.
In the case of `CCN(CC)CCCCCCNc1cccc2cc(Br)cnc12`, the GI50 in the experiment with EKVX NSCLC was 10.2 µM; in the experiment on HCC-2998 colon, 3.84 µM; in the experiment on HOP-92 NSCLC it was 2.52 µM; in the experiment on K-562 leukemia, 2.08 µM; with MALME-3M melanoma, 2.46 µM; in the experiment on MDA-MB-435, 3.76 µM. Moreover, the GI50 in the experiment with OVCAR-4 ovarian was 5.05 µM; with OVCAR-5 ovarian it was 6.25 µM; in the experiment on OVCAR-8 ovarian it was 10.1 µM; in the experiment with SF-539 CNS it was 6.47 µM. In addition, the TGI came to 25.1 µM in the experiment on EKVX NSCLC; 15.4 µM with HCC-2998 colon; 9.44 µM in the experiment on HOP-92 NSCLC; 5.59 µM in the experiment on K-562 leukemia; 5.13 µM in the experiment on MALME-3M melanoma; 12.9 µM with MDA-MB-435. Besides, the TGI amounted to 18.9 µM with OVCAR-4 ovarian, 18.9 µM with OVCAR-5 ovarian, 23.9 µM in the experiment on OVCAR-8 ovarian and 20.8 µM in the experiment on SF-539 CNS.
